Results: patent US8507464B2, “Phosphoramidate alkylator prodrugs” (Threshold Pharmaceuticals, Inc., priority 2005, dated 2013)
Read-outs that look alike come from different tables or passages of the source.

Columns and labels:
NCI-H460 cells [1] = test: Antiproliferation assay - oxygen dependence; format: cell-based, human; conditions: Homo sapiens
Excerpt: . […] The calculated IC50 values (μM) are tabulated in Table Y1 (H460 cells) or Table Y2 (HT29 cells) below.

NCI-H460 cells [2] = test: Antiproliferation assay (Alamar Blue), anoxia vs air; conditions: Homo sapiens, NCI-H460, 2 h
DX-5 = test: Anti-proliferation assay, hypoxia vs normoxia (Table 1B)
in vivo = conditions: for half-life: t ½, mice
[3] = Plasma stability (Table 2B); conditions: 30 min
MES-SA cells = test: Antiproliferation assay (Alamar Blue), anoxia vs air; conditions: Homo sapiens, 2 h
IRS1SF cells (XRCC3) = test: Antiproliferation assay - DNA mutant repair cells; conditions: Cricetulus griseus, 2 h
HT29 = test: Anti-proliferation assay, hypoxia vs normoxia (Table 1B); conditions: for IC50: Homo sapiens
[4] = system: H460 cells exposed as monolayers; test: Clonogenic survival of monolayer cells (Example 35); conditions: Homo sapiens, NCI-H460, 2 h
AA8 cells (wild type) = test: Antiproliferation assay - DNA mutant repair cells; conditions: Cricetulus griseus, CHO-AA8, 2 h
[5] = format: physicochemical; conditions: glassy carbon, Ag/AgCl reference
HT29 cells = test: Antiproliferation assay (Alamar Blue), anoxia vs air; conditions: Homo sapiens, HT-29, 2 h
UV41 cells (XPF) = test: Antiproliferation assay - DNA mutant repair cells; conditions: Cricetulus griseus, 2 h
[6] = system: H460 lung carcinoma spheroids; test: Spheroid model, clonogenic survival; conditions: Homo sapiens, NCI-H460, 2 h, read-out: IC90 H460 Spheroid 10% O2
HCT116 = test: Anti-proliferation assay, hypoxia vs normoxia (Table 1B); conditions: for IC50: Homo sapiens
MES-SA/Dx5 cells = test: Antiproliferation assay (Alamar Blue), anoxia vs air; conditions: Homo sapiens, MES-SA/Dx5, 2 h
UV135 cells (XPG) = test: Antiproliferation assay - DNA mutant repair cells; conditions: Cricetulus griseus, 2 h
EM9 cells (XRCC1) = test: Antiproliferation assay - DNA mutant repair cells; conditions: Cricetulus griseus, 2 h
H460 cell line = test: Anti-proliferation assay, hypoxia vs normoxia (Table 1A); conditions: for IC50: Homo sapiens
[7] = CD-1, Balb/c for Compound 1, mouse, iv

Cn1c(COP(=O)(NCCCl)NCCCl)cnc1[N+](=O)[O-] [Compound 36]
IC50 (NCI-H460 cells [1]; NCI-H460, read-out: IC50 in H460 cells, 0.1% O2): 30 µM | IC50 (NCI-H460 cells [1]; NCI-H460, read-out: IC50 in H460 cells, 0.6% O2): 60 µM | IC50 (NCI-H460 cells [1]; NCI-H460, read-out: IC50 in H460 cells, 1% O2): 60 µM | IC50 (NCI-H460 cells [1]; NCI-H460, read-out: IC50 in H460 cells, 10% O2): > 100 µM | IC50 (NCI-H460 cells [1]; NCI-H460, read-out: IC50 in H460 cells, Air): > 100 µM | IC50 (NCI-H460 cells [1]; NCI-H460, read-out: IC50 in H460 cells, N2): 1 µM | IC50 (NCI-H460 cells [2]; read-out: IC50 H460 Air, air, 2 h exposure): > 100 µM | IC50 (NCI-H460 cells [2]; read-out: IC50 H460 Anoxia, anoxia, 2 h exposure): 0.88 µM | DX-5 HCR (DX-5): >13 | IC50 (DX-5; read-out: DX-5 P H (proliferation IC50, hypoxia)): 7.5 µM | IC50 (DX-5; read-out: DX-5 P N (proliferation IC50, normoxic)): > 100 µM | clearance (in vivo; CD-1 (Compounds 5, 23, 36), Balb/c (Compound 1), mouse, iv): 77.4 mL/min/kg | Cmax (in vivo; CD-1, Balb/c for Compound 1, mouse, ip): 44000 ng/mL | AUC (in vivo; [7]): 10800 ng·h/mL | Cmax (in vivo; [7]): 27700 ng/mL | Vd (in vivo; [7]): 1.27 L/kg | half-life (in vivo; CD-1, Balb/c for Compound 1, mouse, iv, intravenous administration in mice): 14.4 min | AUC (in vivo; CD-1, mouse, ip): 26100 ng·h/mL | half-life (in vivo; mouse, ip, intraperitoneal administration in mice): 10.8 min | Plasma stability (% at 30 min) [3]: 60% | IC50 (MES-SA cells; read-out: IC50 MES-SA Air): > 100 µM | IC50 (MES-SA cells; read-out: IC50 MES-SA Anoxia): 5 µM | IC50 (IRS1SF cells (XRCC3); read-out: IC50 IRS1SF Air): 59 µM | IC50 (IRS1SF cells (XRCC3); read-out: IC50 IRS1SF Anoxia): 0.3 µM | HT29 HCR P (HT29): >2 | IC50 (HT29; HT-29, read-out: HT29 P H (proliferation IC50, hypoxia)): 55 µM | IC50 (HT29; HT-29, read-out: HT29 P H, value in parentheses): 35 µM | IC50 (HT29; HT-29, read-out: HT29 P N (proliferation IC50, normoxic)): > 100 µM | IC90 ([4]; read-out: IC90 H460 Monolayer Air): 100 µM | IC90 ([4]; read-out: IC90 H460 Monolayer N2): 1 µM | IC50 (AA8 cells (wild type); read-out: IC50 AA8 Air): > 100 µM | IC50 (AA8 cells (wild type); read-out: IC50 AA8 Anoxia): 2 µM | Reduction Potentials, 100 mV/sec ([5]; scan rate 100 mV/sec): −609 mV | Reduction Potentials, 10,000 mV/sec ([5]; scan rate 10,000 mV/sec): −634 mV | IC50 (HT29 cells; read-out: IC50 HT29 Air): > 100 µM | IC50 (HT29 cells; read-out: IC50 HT29 Anoxia): 55 µM | IC50 (UV41 cells (XPF); read-out: IC50 UV41 Air): 20 µM | IC50 (UV41 cells (XPF); read-out: IC50 UV41 Anoxia): 0.03 µM | IC90 [6]: > 100 µM | HCT116 HCR (HCT116): >20 | IC50 (HCT116; HCT-116, read-out: HCT116 P H (proliferation IC50, hypoxia)): 5 µM | IC50 (HCT116; HCT-116, read-out: HCT116 P N (proliferation IC50, normoxic)): > 100 µM | IC50 (MES-SA/Dx5 cells; read-out: IC50 MES-SA/Dx5 Air): > 100 µM | IC50 (MES-SA/Dx5 cells; read-out: IC50 MES-SA/Dx5 Anoxia): 7.5 µM | IC50 (UV135 cells (XPG); read-out: IC50 UV135 Air): > 100 µM | IC50 (UV135 cells (XPG); read-out: IC50 UV135 Anoxia): 2 µM | IC50 (EM9 cells (XRCC1); read-out: IC50 EM9 Air): > 100 µM | IC50 (EM9 cells (XRCC1); read-out: IC50 EM9 Anoxia): 4 µM | IC50 (H460 cell line; NCI-H460, read-out: Hypoxia P (proliferation IC50)): 0.88 µM | IC50 (H460 cell line; NCI-H460, read-out: Normoxia P (proliferation IC50)): > 100 µM | HCR P (H460 cell line; ratio of IC50 in normoxia and hypoxia): >110
